From US20250382344A1, “Soluble GLP1/GIP/NPY2 Receptor Triple Agonists” (Boehringer Ingelheim International GmH, priority 2024, published 2025)
pEC50: −log10 of the molar value. Where two headings read alike, the source gives them in different places. *1 amine or outer side, *2 acyl side, *3 side chain or, on linkers, in order; H or OH if unused. Where a SMILES comes first, the peptide text is derived from it. Side-chain parts run from the residue outwards. [ ]: non-standard residue; d: D form. The star is where a group is joined. Argψ(CH2NH)TyrNH2 = N=C(N)NCCC[C@@H](CN[C@@H](Cc1ccc(O)cc1)C(N)=O)N*; C18 diacid = O=C(O)CCCCCCCCCCCCCCCCC(=O)*; γGlu = O=C(O)[C@H](CCC(=O)[*:2])N[*:1]; Aib = CC(C)(N)C(=O)O

Experiments:
[1] = Solubility in 0.1 M phosphate buffer at pH 7; format: physicochemical; conditions: 0.1 M phosphate buffer at pH 7, 10 mg/mL final peptide concentration, shaking 2 hours at room temperature, peptides as TFA-salts; measured sample pH 6.5-7.0
hGLP1R = biological target: T1, hGLP1R (Homo sapiens, UniProt P43220); test: hGLP1R CreLuc assay in 0.5% and 100% plasma (HEK-293 CRE-luciferase reporter cells); format: cell-based; conditions: HEK-293 reporter cells
T1 construct: expressed in transfected cells; host or cells: HEK-293 CRE-luciferase reporter cells
T1 sequence (P43220 24-463): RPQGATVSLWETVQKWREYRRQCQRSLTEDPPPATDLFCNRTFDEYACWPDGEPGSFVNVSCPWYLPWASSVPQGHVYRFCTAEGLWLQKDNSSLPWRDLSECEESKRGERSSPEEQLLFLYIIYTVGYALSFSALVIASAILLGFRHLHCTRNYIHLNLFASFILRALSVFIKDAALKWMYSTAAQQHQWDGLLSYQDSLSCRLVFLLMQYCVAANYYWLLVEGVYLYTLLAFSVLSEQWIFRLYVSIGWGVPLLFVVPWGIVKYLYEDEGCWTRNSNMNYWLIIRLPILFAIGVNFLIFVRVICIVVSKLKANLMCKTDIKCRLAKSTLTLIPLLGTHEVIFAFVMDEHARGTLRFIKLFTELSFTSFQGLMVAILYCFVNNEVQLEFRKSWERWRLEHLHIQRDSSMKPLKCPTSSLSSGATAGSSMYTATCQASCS

hNPY2R = biological target: T2, hNPY2R (Homo sapiens, UniProt P49146); test: hNPY2R CreLuc assay in 0.5% and 100% plasma (HEK-293 CRE-luciferase reporter cells); format: cell-based; conditions: HEK-293 reporter cells
T2 construct: expressed in transfected cells; host or cells: HEK-293 CRE-luciferase reporter cells
T2 sequence (P49146 1-381): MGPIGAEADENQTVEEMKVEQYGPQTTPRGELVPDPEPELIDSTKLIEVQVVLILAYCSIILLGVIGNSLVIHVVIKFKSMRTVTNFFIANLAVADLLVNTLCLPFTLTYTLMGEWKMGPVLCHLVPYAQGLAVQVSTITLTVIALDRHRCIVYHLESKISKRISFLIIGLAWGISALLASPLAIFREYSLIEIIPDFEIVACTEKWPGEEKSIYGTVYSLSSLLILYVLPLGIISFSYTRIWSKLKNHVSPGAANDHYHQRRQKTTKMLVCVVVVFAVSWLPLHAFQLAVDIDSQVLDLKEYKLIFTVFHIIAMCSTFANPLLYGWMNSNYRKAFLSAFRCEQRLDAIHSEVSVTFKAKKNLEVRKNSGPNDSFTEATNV

hGIPR = biological target: T3, hGIPR (Homo sapiens, UniProt P48546); test: hGIPR CreLuc assay in 0.5% and 100% plasma (CHO CRE-luciferase reporter cells); format: cell-based
T3 construct: expressed in transfected cells; host or cells: CHO CRE-luciferase reporter cells
T3 sequence (P48546 22-466): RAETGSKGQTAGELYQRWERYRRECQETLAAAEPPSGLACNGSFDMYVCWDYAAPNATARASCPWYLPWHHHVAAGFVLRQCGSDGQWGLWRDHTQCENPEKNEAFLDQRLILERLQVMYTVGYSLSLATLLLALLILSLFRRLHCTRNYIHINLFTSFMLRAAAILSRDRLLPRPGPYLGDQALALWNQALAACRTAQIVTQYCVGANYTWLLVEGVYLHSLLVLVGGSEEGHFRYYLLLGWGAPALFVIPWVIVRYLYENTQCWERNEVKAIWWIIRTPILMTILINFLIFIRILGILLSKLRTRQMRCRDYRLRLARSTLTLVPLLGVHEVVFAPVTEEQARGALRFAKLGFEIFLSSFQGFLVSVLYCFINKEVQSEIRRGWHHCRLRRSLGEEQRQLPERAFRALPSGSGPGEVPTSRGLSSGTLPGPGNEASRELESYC

[2] = 0.5% human plasma, read-out: hGLP1R 0.5% hP
[3] = 0.5% human plasma, read-out: hNPY2R 0.5% hP
[4] = 0.5% human plasma, read-out: hGIPR 0.5% hP
[5] = 100% human plasma, read-out: hGIPR 100% hP
[6] = 100% human plasma, read-out: hGLP1R 100% hP
[7] = 100% human plasma, read-out: hNPY2R 100% hP

| solubility at 2 h [1] [µg/mL] | pEC50 (hGLP1R; [2]) | pEC50 (hNPY2R; [3]) | pEC50 (hGIPR; [4]) | pEC50 (hGIPR; [5]) | pEC50 (hGLP1R; [6]) | pEC50 (hNPY2R; [7]) | SMILES |
| --- | --- | --- | --- | --- | --- | --- | --- |
| 9400 | 8.70 | 7.76 | – | – | – | – | CC[C@H](C)[C@H](NC(=O)[C@H](CC(C)C)NC(=O)[C@H](Cc1c[nH]cn1)NC(=O)[C@H](CCCNC(=N)N)NC(=O)[C@@H](NC(=O)[C@H](Cc1ccccc1)NC(=O)[C@H](C)NC(=O)C(C)(C)NC(=O)[C@H](CCC(=O)O)NC(=O)[C@H](C)NC(=O)[C@H](CCC(N)=O)NC(=O)[C@H](CCCCN)NC(=O)[C@H](CCC(=O)O)NC(=O)[C@H](CC(C)C)NC(=O)C(C)(C)NC(=O)[C@@H](NC(=O)[C@H](CO)NC(=O)[C@H](Cc1ccc(O)cc1)NC(=O)[C@H](CC(=O)O)NC(=O)[C@H](CO)NC(=O)[C@@H](NC(=O)[C@H](Cc1ccccc1)NC(=O)[C@@H](NC(=O)CNC(=O)[C@H](CCC(=O)O)NC(=O)C(C)(C)NC(=O)[C@@H](N)Cc1ccc(O)cc1)[C@@H](C)O)[C@@H](C)O)[C@@H](C)CC)C(C)C)C(=O)N[C@@H](CC(N)=O)C(=O)N[C@@H](CCCCNC(=O)[C@@H](N)CCCCNC(=O)CC[C@H](NC(=O)CC[C@H](NC(=O)CC[C@H](NC(=O)CC[C@H](NC(=O)CC[C@H](NC(=O)CC[C@H](NC(=O)CCCCCCCCCCCCCCCCCCC(=O)O)C(=O)O)C(=O)O)C(=O)O)C(=O)O)C(=O)O)C(=O)O)C(=O)NC(C)(C)C(=O)N[C@H](C(=O)N[C@@H](CCCNC(=N)N)C(=O)N[C@@H](CCC(N)=O)C(=O)N[C@@H](CCCNC(=N)N)C(=O)N[C@@H](Cc1ccc(O)cc1)C(N)=O)[C@@H](C)O [Compound 104, Y-Aib-E-G-T-F-T-S-D-Y-S-I-Aib-L-E-K-Q-A-E-Aib-A-F-V-R-H-L-I-N-K(1,3)-Aib-T-R-Q-R-Y-NH2.C20DA-gGlu-gGlu-gGlu-gGlu-gGlu-gGlu-eLys(1,2)] |
| 4800 | 9.52 | 7.77 | 10.00 | 8.21 | 9.05 | 6.41 | CC[C@H](C)[C@H](NC(=O)[C@H](CC(C)C)NC(=O)[C@H](Cc1c[nH]cn1)NC(=O)[C@H](CCCNC(=N)N)NC(=O)[C@@H](NC(=O)[C@H](Cc1ccccc1)NC(=O)[C@H](CCC(=O)O)NC(=O)C(C)(C)NC(=O)[C@H](CCC(N)=O)NC(=O)[C@H](C)NC(=O)[C@H](CCC(N)=O)NC(=O)[C@H](CCCCN)NC(=O)[C@H](CCC(=O)O)NC(=O)[C@H](CC(C)C)NC(=O)C(C)(C)NC(=O)[C@@H](NC(=O)[C@H](CO)NC(=O)[C@H](Cc1ccc(O)cc1)NC(=O)[C@H](CC(=O)O)NC(=O)[C@H](CO)NC(=O)[C@@H](NC(=O)[C@H](Cc1ccccc1)NC(=O)[C@@H](NC(=O)CNC(=O)[C@H](CCC(=O)O)NC(=O)C(C)(C)NC(=O)[C@@H](N)Cc1ccc(O)cc1)[C@@H](C)O)[C@@H](C)O)[C@@H](C)CC)C(C)C)C(=O)N[C@@H](CC(N)=O)C(=O)N[C@@H](CCCCNC(=O)CCCCCNC(=O)CC[C@H](NC(=O)CC[C@H](NC(=O)CC[C@H](NC(=O)CC[C@H](NC(=O)CC[C@H](NC(=O)CCCCCCCCCCCCCCCCC(=O)O)C(=O)O)C(=O)O)C(=O)O)C(=O)O)C(=O)O)C(=O)NC(C)(C)C(=O)N[C@H](C(=O)N[C@@H](CCCNC(=N)N)C(=O)N[C@@H](CCC(N)=O)C(=O)N[C@@H](CCCNC(=N)N)C(=O)N[C@@H](Cc1ccc(O)cc1)C(N)=O)[C@@H](C)O [Compound 14, Y-Aib-E-G-T-F-T-S-D-Y-S-I-Aib-L-E-K-Q-A-Q-Aib-E-F-V-R-H-L-I-N-K(1,3)-Aib-T-R-Q-R-Y-NH2.C18DA-gGlu-gGlu-gGlu-gGlu-gGlu-AHX(1,2)] |
| – | 9.05 | – | 9.52 | 8.77 | 8.77 | 6.90 | CC[C@H](C)[C@H](NC(=O)[C@H](CC(C)C)NC(=O)[C@H](Cc1c[nH]cn1)NC(=O)[C@H](CCCNC(=N)N)NC(=O)[C@@H](NC(=O)[C@H](Cc1ccccc1)NC(=O)[C@H](C)NC(=O)C(C)(C)NC(=O)[C@H](CCC(N)=O)NC(=O)[C@H](C)NC(=O)[C@H](CCC(N)=O)NC(=O)[C@H](CCCCN)NC(=O)[C@H](CCC(=O)O)NC(=O)[C@H](CC(C)C)NC(=O)C(C)(C)NC(=O)[C@@H](NC(=O)[C@H](CO)NC(=O)[C@H](Cc1ccc(O)cc1)NC(=O)[C@H](CC(=O)O)NC(=O)[C@H](CO)NC(=O)[C@@H](NC(=O)[C@H](Cc1ccccc1)NC(=O)[C@@H](NC(=O)CNC(=O)[C@H](CCC(=O)O)NC(=O)C(C)(C)NC(=O)[C@@H](N)Cc1ccc(O)cc1)[C@@H](C)O)[C@@H](C)O)[C@@H](C)CC)C(C)C)C(=O)N[C@@H](CC(N)=O)C(=O)N[C@@H](CCCCNC(=O)CC[C@H](NC(=O)CC[C@H](NC(=O)CC[C@H](NC(=O)CC[C@H](NC(=O)CC[C@H](NC(=O)CCCCCCCCCCCCCCCCC(=O)O)C(=O)O)C(=O)O)C(=O)O)C(=O)O)C(=O)O)C(=O)NC(C)(C)C(=O)N[C@H](C(=O)N[C@@H](CCCNC(=N)N)C(=O)N[C@@H](CCC(N)=O)C(=O)N[C@@H](CCCNC(=N)N)CN[C@@H](Cc1ccc(O)cc1)C(N)=O)[C@@H](C)O [Compound 96, Y-Aib-E-G-T-F-T-S-D-Y-S-I-Aib-L-E-K-Q-A-Q-Aib-A-F-V-R-H-L-I-N-K(1,3)-Aib-T-R-Q-dOR-Y-NH2.C18DA-gGlu-gGlu-gGlu-gGlu-gGlu(1,2)] (H-Y[Aib]EGTFTSDYSI[Aib]LEKQAQ[Aib]AFVRHLINK([γGlu-γGlu-γGlu-γGlu-γGlu-C18 diacid])[Aib]TRQ-{Argψ(CH2NH)TyrNH2}) |
| 9000 | 8.24 | – | – | – | – | 7.38 | CC[C@H](C)[C@H](NC(=O)[C@H](CC(C)C)NC(=O)[C@H](Cc1c[nH]cn1)NC(=O)[C@H](CCCNC(=N)N)NC(=O)[C@H](CC(C)C)NC(=O)[C@H](Cc1ccccc1)NC(=O)[C@H](C)NC(=O)C(C)(C)NC(=O)[C@H](CCC(N)=O)NC(=O)[C@H](C)NC(=O)[C@H](CCC(N)=O)NC(=O)[C@H](CCCCN)NC(=O)[C@H](CCC(=O)O)NC(=O)[C@H](CC(C)C)NC(=O)C(C)(C)NC(=O)[C@@H](NC(=O)[C@H](CO)NC(=O)[C@H](Cc1ccc(O)cc1)NC(=O)[C@H](CC(=O)O)NC(=O)[C@H](CO)NC(=O)[C@@H](NC(=O)[C@H](Cc1ccccc1)NC(=O)[C@@H](NC(=O)CNC(=O)[C@H](CCC(=O)O)NC(=O)C(C)(C)NC(=O)[C@@H](N)Cc1ccc(O)cc1)[C@@H](C)O)[C@@H](C)O)[C@@H](C)CC)C(=O)N[C@@H](CC(N)=O)C(=O)N[C@@H](CCCCNC(=O)[C@@H](N)CCCCNC(=O)CC[C@H](NC(=O)CC[C@H](NC(=O)CC[C@H](NC(=O)CC[C@H](NC(=O)CC[C@H](NC(=O)CC[C@H](NC(=O)CCCCCCCCCCCCCCCCC(=O)O)C(=O)O)C(=O)O)C(=O)O)C(=O)O)C(=O)O)C(=O)O)C(=O)NC(C)(C)C(=O)N[C@H](C(=O)N[C@@H](CCCNC(=N)N)C(=O)N[C@@H](CCC(N)=O)C(=O)N[C@@H](CCCNC(=N)N)C(=O)N[C@@H](Cc1ccc(O)cc1)C(N)=O)[C@@H](C)O [Compound 37, Y-Aib-E-G-T-F-T-S-D-Y-S-I-Aib-L-E-K-Q-A-Q-Aib-A-F-L-R-H-L-I-N-K(1,3)-Aib-T-R-Q-R-Y-NH2.C18DA-gGlu-gGlu-gGlu-gGlu-gGlu-gGlu-eLys(1,2)] |
| 9400 | – | – | – | – | 7.84 | 7.79 | CC[C@H](C)[C@H](NC(=O)[C@H](CC(C)C)NC(=O)[C@H](Cc1c[nH]cn1)NC(=O)[C@H](CCCNC(=N)N)NC(=O)[C@@H](NC(=O)[C@H](Cc1ccccc1)NC(=O)[C@H](C)NC(=O)C(C)(C)NC(=O)[C@H](CCC(N)=O)NC(=O)[C@H](C)NC(=O)[C@H](CCC(N)=O)NC(=O)[C@H](CCCCN)NC(=O)[C@H](CCC(=O)O)NC(=O)[C@H](CC(C)C)NC(=O)C(C)(C)NC(=O)[C@@H](NC(=O)[C@H](CO)NC(=O)[C@H](Cc1ccc(O)cc1)NC(=O)[C@H](CC(=O)O)NC(=O)[C@H](CO)NC(=O)[C@@H](NC(=O)[C@H](Cc1ccccc1)NC(=O)[C@H](C)NC(=O)CNC(=O)[C@H](CCC(=O)O)NC(=O)C(C)(C)NC(=O)[C@@H](N)Cc1ccc(O)cc1)[C@@H](C)O)[C@@H](C)CC)C(C)C)C(=O)N[C@@H](CC(N)=O)C(=O)N[C@@H](CCCCNC(=O)[C@@H](N)CCCCNC(=O)CC[C@H](NC(=O)CC[C@H](NC(=O)CC[C@H](NC(=O)CC[C@H](NC(=O)CC[C@H](NC(=O)CC[C@H](NC(=O)CCCCCCCCCCCCCCCCC(=O)O)C(=O)O)C(=O)O)C(=O)O)C(=O)O)C(=O)O)C(=O)O)C(=O)NC(C)(C)C(=O)N[C@H](C(=O)N[C@@H](CCCNC(=N)N)C(=O)N[C@@H](CCC(N)=O)C(=O)N[C@@H](CCCNC(=N)N)C(=O)N[C@@H](Cc1ccc(O)cc1)C(N)=O)[C@@H](C)O [Compound 85, Y-Aib-E-G-A-F-T-S-D-Y-S-I-Aib-L-E-K-Q-A-Q-Aib-A-F-V-R-H-L-I-N-K(1,3)-Aib-T-R-Q-R-Y-NH2.C18DA-gGlu-gGlu-gGlu-gGlu-gGlu-gGlu-eLys(1,2)] |
